Among the data in patent US7582645B2, “Pyrimidine derivatives for treatment of hyperproliferative disorders” (Bayer Pharmaceuticals Corporation, priority 2003, dated 2009) are IC50 values, retold here.

Structures can show the parent of a compound that is named as a salt.

One assay relates to HCT116 cells. The assay is described as follows: HCT116 cytotoxic activity assay (Alamar Blue, 72 h). Type of assay: cell-based. Particulars: Homo sapiens, HCT-116, 72 h compound exposure, greater than 500 nM but less than or equal to 2 μM. As for the experimental part: Representative compounds of this invention were tested for cytotoxicity using the above-described assay procedure with the following results: […]
For orientation: Alamar Blue is a resazurin reagent that responds to reducing activity.
Take `CN1CCN(c2cc(Oc3ccc(Nc4cc(-c5ccccc5)nc(N)n4)cc3)ccn2)CC1` [Example 135, N4*-(4-{[2-(4-methylpiperazin-1-yl)pyridin-4-yl]oxy}phenyl)-6-phenylpyrimidine-2,4-diamine]: the IC50 was 500 to 2000 nM.
In the case of `CN(C)[C@H]1CCN(c2cc(Oc3ccc(Nc4cc(-c5ccccc5)nc(N)n4)cc3)ccn2)C1` [Example 144, N4*-[4-({2-[(3S)-3-(dimethylamino)pyrrolidin-1-yl]pyridin-4-yl}oxy)phenyl]-6-phenylpyrimidine-2,4-diamine], the half-maximal inhibitory concentration (IC50) fell in the range of 500 to 2000 nM.
Compound `CNC(=O)c1cc(Oc2ccc(Nc3cc(-c4ccoc4)nc(N)n3)cc2)ccn1` [Example 10, 4-(4-{[2-amino-6-(3-furyl)pyrimidin-4-yl]amino}-phenoxy)-N-methylpyridine-2-carboxamide] gave an IC50 of 500 to 2000 nM.
`Nc1nc(Nc2ccc(Oc3ccnc(C4=NCCN4)c3)cc2)cc(-c2ccccc2)n1` [Example 47, N^4-{4-[2-(4,5-Dihydro-1H-imidazol-2-yl)pyridin-4-yloxy]phenyl}-6-phenylpyrimidine-2,4-diamine] came in with an IC50 of 500 to 2000 nM.
`COc1ccc(Cc2ccc(Nc3cc(-c4ccccc4)nc(N)n3)cc2)cc1` [Example 90, N^4-[4-(4-methoxybenzyl)phenyl]-6-phenylpyrimidine-2,4-diamine]: the IC50 is 500 to 2000 nM.
In turn, `N#Cc1cc(Oc2ccc(Nc3cc(-c4ccc(F)cc4)nc(N)n3)cc2)ccn1` [Example 75, 4-(4-{[2-amino-6-(4-fluorophenyl)pyrimidin-4-yl]amino}phenoxy) pyridine-2-carbonitrile] had a half-inhibitory concentration (IC50) of 500 to 2000 nM.
In turn, `CCNc1nc(Nc2ccc(Oc3ccnc(C(F)(F)F)c3)cc2)cc(-c2cccc(OC)c2)n1` [Example 30, N^2-ethyl-6-(3-methoxy-phenyl)-N^4-[4-(2-trifluoromethyl-pyridin-4-yloxy)-phenyl]-pyrimidine-2,4-diamine] showed an IC50 of 500 to 2000 nM.
As to `Nc1nc(Nc2ccc(Oc3ccnc(Cl)c3)cc2)cc(-c2cccc([N+](=O)[O-])c2)n1` [Example 115, N4*-{4-[(2-chloropyridin-4-yl)oxy]phenyl}-6-(3-nitrophenyl)pyrimidine-2,4-diamine], the concentration for half-maximal inhibition (IC50) was in the range of 500 to 2000 nM.
In turn, `Nc1nc(Nc2ccc(Oc3ccnc(CNC(=O)N4CCOCC4)c3)cc2)cc(-c2ccccc2)n1` [Example 100, N-[(4-{4-[(2-amino-6-phenylpyrimidin-4-yl)amino]phenoxy}pyridin-2-yl)methyl]morpholine-4-carboxamide] showed an IC50 of 500 to 2000 nM.
`Nc1nc(Nc2cccc(Oc3ccnc(N4CCC[C@H]4CO)c3)c2)cc(-c2ccccc2)n1` [Example 128, [(2S)-1-(4-{3-[(2-amino-6-phenylpyrimidin-4-yl)amino]phenoxy}pyridin-2-yl)pyrrolidin-2-yl]methanol] came in with an IC50 of 500 to 2000 nM.
`N#Cc1cc(Oc2ccc(Nc3cc(-c4cccs4)nc(N)n3)cc2)ccn1` [Example 239, 4-(4-{[2-amino-6-(2-thienyl)pyrimidin-4-yl]amino}phenoxy) pyridine-2-carbonitrile] returned an IC50 of 500 to 2000 nM.
Compound `Cc1cc(Oc2ccc(Nc3cc(-c4cccc(OC(C)C)c4)nc(N)n3)cc2)ccn1` [Example 324, 6-(3-isopropoxyphenyl)-N4*-{4-[(2-methylpyridin-4-yl)oxy]phenyl} pyrimidine-2,4-diamine] showed an IC50 of 500 to 2000 nM.
The same measure, in the same setting: to `N#Cc1cc(Oc2ccc(Nc3cc(-c4ccc(Cl)cc4)nc(N)n3)cc2)ccn1` [Example 242, 4-(4-{[2-amino-6-(4-chlorophenyl)pyrimidin-4-yl]amino}phenoxy) pyridine-2-carbonitrile] belongs 500 to 2000 nM.

The same assay, now with this note: Homo sapiens, HCT-116, 72 h compound exposure, greater than 2 μM.
Regarding `CCC(CC)NCc1cc(Oc2ccc(Nc3cc(-c4ccccc4)nc(N)n3)cc2)ccn1` [Example 110, N4*-{4-[(2-{[(1-ethylpropyl)amino]methyl}pyridin-4-yl)oxy]phenyl}-6-phenylpyrimidine-2,4-diamine], the IC50 is > 2000 nM.
Turning to `NC(=O)c1cc(Oc2ccc(Nc3cc(-c4cccc(CO)c4)nc(N)n3)cc2)ccn1` [Example 265, 4-[4-({2-amino-6-[3-(hydroxymethyl)phenyl]pyrimidin-4-yl}amino)phenoxy]pyridine-2-carboxamide], the IC50 is > 2000 nM.
Turning to `NC(=O)c1cc(Oc2cccc(Nc3cc(-c4cccc(F)c4)nc(N)n3)c2)ccn1` [Example 285, 4-(3-{[2-amino-6-(3-fluorophenyl)pyrimidin-4-yl]amino}phenoxy) pyridine-2-carboxamide], the IC50 is > 2000 nM.
The same measure, in the same setting: to `COCCN(CCOC)c1cc(Oc2cccc(Nc3cc(-c4ccccc4)nc(N)n3)c2)ccn1` [Example 126, N4*-[3-({2-[bis(2-methoxyethyl)amino]pyridin-4-yl}oxy)phenyl]-6-phenylpyrimidine-2,4-diamine] belongs > 2000 nM; to `CNC(=O)c1cc(Oc2cccc(Nc3cc(-c4ccc(F)cc4)nc(N)n3)c2)ccn1` [Example 72, 4-(3-{[2-amino-6-(4-fluorophenyl)pyrimidin-4-yl]amino}phenoxy)-N-methylpyridine-2-carboxamide], > 2000 nM.
`N#Cc1cc(Oc2ccc(Nc3cc(-c4cccnc4)nc(N)n3)cc2)ccn1` [Example 236, 4-{4-[(2-amino-6-pyridin-3-ylpyrimidin-4-yl)amino]phenoxy} pyridine-2-carbonitrile]: the IC50 was > 2000 nM.

Still in this assay, the particulars now being: Homo sapiens, HCT-116, 72 h compound exposure, less than or equal to 500 nM.
In the case of `NC(=O)c1cc(Oc2cccc(Nc3cc(-c4ccccc4)nc(N)n3)c2)ccn1` [Example 3, 4-{3-[(2-amino-6-phenylpyrimidin-4-yl)amino]phenoxy}pyridine-2-carboxamide], the IC50 was ≤ 500 nM.
As to `Cc1cccc(-c2cc(Nc3ccc(Oc4ccnc(C(N)=O)c4)cc3)nc(N)n2)c1` [Example 268, 4-(4-{[2-amino-6-(3-methylphenyl)pyrimidin-4-yl]amino}phenoxy) pyridine-2-carboxamide], the IC50 was ≤ 500 nM.
For the compound `Cc1cc(-c2cc(Nc3ccc(Oc4ccnc(C(F)(F)F)c4)cc3)nc(N)n2)ccc1N` [Example 180, 6-(4-amino-3-methylphenyl)-N4*-(4-{[2-(trifluoromethyl)pyridin-4-yl]oxy}phenyl)pyrimidine-2,4-diamine], the IC50 is ≤ 500 nM.
Same read-out and setting: to `COc1ccc(-c2cc(Nc3ccc(Oc4ccnc(C(F)(F)F)c4)cc3)nc(N)n2)cc1` [Example 190, 6-(4-methoxyphenyl)-N4*-(4-{[2-(trifluoromethyl)pyridin-4-yl]oxy}phenyl)pyrimidine-2,4-diamine] belongs ≤ 500 nM.
The same measure, in the same setting: to `Cc1cc(O)ccc1-c1cc(Nc2ccc(Oc3ccnc(C(F)(F)F)c3)cc2)nc(N)n1` [Example 174, 4-{2-amino-6-[(4-{[2-(trifluoromethyl)pyridin-4-yl]oxy}phenyl)amino]pyrimidin-4-yl}-3-methylphenol] belongs ≤ 500 nM.
Take `Cc1cc(Oc2ccc(Nc3cc(-c4ccoc4)nc(N)n3)cc2)ccn1` [Example 321, 6-(3-furyl)-N4*-{4-[(2-methylpyridin-4-yl)oxy]phenyl} pyrimidine-2,4-diamine]: the IC50 is ≤ 500 nM.
On the same count and under the same terms, as for `Nc1nc(Nc2ccc(Oc3ccnc(Cl)c3)cc2)cc(-c2ccc(OS(N)(=O)=O)cc2)n1` [Example 332, 4-[2-amino-6-({4-[(2-chloropyridin-4-yl)oxy]phenyl}amino)pyrimidin-4-yl]phenyl sulfamate], the figure is ≤ 500 nM.
Turning to `NC(=O)c1cc(Oc2ccc(Nc3cc(-c4ccccc4)nc(N)n3)cc2)ccn1` [Example 69, 4-{4-[(2-amino-6-phenylpyrimidin-4-yl)amino]phenoxy} pyridine-2-carboxamide], the IC50 is ≤ 500 nM.
Turning to `CCc1cccc(-c2cc(Nc3ccc(Oc4ccnc(C(F)(F)F)c4)cc3)nc(N)n2)c1` [Example 200, 6-(3-ethylphenyl)-N4*-(4-{[2-(trifluoromethyl)pyridin-4-yl]oxy}phenyl)pyrimidine-2,4-diamine], the IC50 was ≤ 500 nM.
On to `COCCN(CCOC)c1cc(Oc2ccc(Nc3cc(-c4ccccc4)nc(N)n3)cc2)ccn1` [Example 140, N4*-[4-({2-[bis(2-methoxyethyl)amino]pyridin-4-yl}oxy)phenyl]-6-phenylpyrimidine-2,4-diamine], for which the IC50 was ≤ 500 nM.
Take `Nc1nc(Nc2ccc(Oc3ccnc(F)c3)cc2)cc(-c2ccccc2)n1` [Example 64, N4*-{4-[(2-fluoropyridin-4-yl)oxy]phenyl}-6-phenylpyrimidine-2,4-diamine trifluoroacetate]: the IC50 was ≤ 500 nM.
As for `Nc1nc(Nc2ccc(Oc3ccnc(C(F)(F)F)c3)cc2)cc(-c2ccccc2CO)n1` [Example 175, (2-{2-amino-6-[(4-{[2-(trifluoromethyl)pyridin-4-yl]oxy}phenyl)amino]pyrimidin-4-yl}phenyl) methanol], the IC50 was ≤ 500 nM.
Take `Nc1nc(Nc2ccc(Oc3ccnc(C(F)(F)F)c3)cc2)cc(-c2ccc(-c3ccccc3)cc2)n1` [Example 187, 6-biphenyl-4-yl-N4*-(4-{[2-(trifluoromethyl)pyridin-4-yl]oxy}phenyl) pyrimidine-2,4-diamine]: the IC50 is ≤ 500 nM.
`COCCN(C)c1cc(Oc2ccc(Nc3cc(-c4ccccc4)nc(N)n3)cc2)ccn1` [Example 137, N4*-[4-({2-[(2-methoxyethyl)(methyl)amino]pyridin-4-yl}oxy)phenyl]-6-phenylpyrimidine-2,4-diamine]: the IC50 is ≤ 500 nM.
Consider `COc1cc(-c2cc(Nc3ccc(Oc4ccnc(C(F)(F)F)c4)cc3)nc(N)n2)ccc1OS(N)(=O)=O` [Example 185, 4-{2-amino-6-[(4-{[2-(trifluoromethyl)pyridin-4-yl]oxy}phenyl)amino]pyrimidin-4-yl}-2-methoxyphenyl sulfamate], for which the IC50 is ≤ 500 nM.
As to `COc1ccc(OC)c(-c2cc(Nc3ccc(Oc4ccnc(C#N)c4)cc3)nc(N)n2)c1` [Example 233, 4-(4-{[2-amino-6-(2,5-dimethoxyphenyl)pyrimidin-4-yl]amino}phenoxy)pyridine-2-carbonitrile], the IC50 was ≤ 500 nM.
As to `Nc1nc(Nc2ccc(Oc3ccnc(C(F)(F)F)c3)cc2)cc(-c2ccccc2C(F)(F)F)n1` [Example 155, 6-[2-(trifluoromethyl)phenyl]-N4*-(4-{[2-(trifluoromethyl)pyridin-4-yl]oxy}phenyl)pyrimidine-2,4-diamine], the IC50 was ≤ 500 nM.

Broadly, the IC50 is the midpoint of a concentration-inhibition curve. Read a low IC50 as greater potency.
